Measurements taken from patent US12564638B2 (SHANGHAITECH UNIVERSITY, priority 2019, dated 2026).
Read-outs that look alike come from different tables or passages of the source.

Key:
Format in all cases: cell-based
[1] = system: HCC827 cells (EGFR Exon19 del, non-small cell lung cancer cells); experiment: Cell viability assay (WST/CCK8), HCC827 cells; settings: Homo sapiens, HCC827, 72 h, HCC827 (Exon19 Del), 72 hours, read-out: IC50 (half inhibitory concentration)
Method in brief: (§1)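 Plated 3 000 cells/well in complete RPMI1640 the day before dosing; controls were DMSO (negative) and EGFR TKIs (positive).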

[2] = system: PC9 cells (EGFR Exon 19 del, non-small cell lung cancer cells); experiment: Cell viability assay (WST/CCK8), PC9 cells; settings: Homo sapiens, PC-9, PC9 (Exon19 Del), 72 hours, read-out: IC50 (half inhibitory concentration)
Method in brief: as §1

[3] = system: H1975 (EGFR T790M+L858R mutation, non-small cell lung cancer cell line); experiment: Cell viability assay (WST/CCK8), H1975 cells; settings: Homo sapiens, NCI-H1975, H1975 (L858R + T790M), read-out: IC50 (half inhibitory concentration)
Excerpt: (§2) The cell lines with abnormal EGFR expression used are as follows: • HCC827 cells (EGFR Exon19 del, non-small cell lung cancer cells); • PC9 cells (EGFR Exon 19 del, non-small cell lung cancer cells); • PC9BracA1 (EGFR Exon 19 del+T790M, non-small cell lung cancer cells) • H1975 (EGFR Exon T790M+L858R mutation, non-small cell lung cancer cell line) • BT474 cells (HER2 positive breast cancer cells)
(§3) All of the half inhibitory concentrations (IC50) of these compounds of the present invention were determined with WST reagent from Fuyuan Biotec Company. The specific experiment procedures are as follows: Cancer cells were planted in 96-well-plate at the density of 3 000 cells per well with 100 μL RPMI1640 completed culture medium. In the next day, compounds with indicated concentrations were added to the cells, DMSO was used as the negative control and the EGFR TKIs were used to treat cells as the positive groups. After 72 hours drug treatment, cell viability was measured by using the WST reagent following the instructions.

[4] = system: PC9BracA1 (EGFR Exon 19 del+T790M, non-small cell lung cancer cells); experiment: Cell viability assay (WST/CCK8), PC9Brac1 cells; settings: read-out: IC50 (half inhibitory concentration)
Excerpt: as §2, §3

[5] = system: BT474 cells (HER2 positive breast cancer cells); experiment: Cell viability assay (CCK8), BT474 cells; settings: Homo sapiens, BT-474, Table 10, BT474, 72 hours, read-out: IC50 (half inhibitory concentration)
Excerpt: as §2
as §3, with “instructions. The growth inhibition curve of the compounds on cells were plotted by Prism GraphPad, and the compounds IC50 calculated from it.” for “instructions.”
The cell viability assays were taken to determine the anti-tumor activity of these indicated compounds in BT474 cells, which can overexpress HER2 protein. The cells were treated with the gradient concentration of these compounds (the maximum concentration: 10 μM; 3-fold dilution ratio, 10 concentration gradients) for 72 hours and then incubated with the CCK8 reagent to determine the cell viability.

[6] = PC9Brac1 (Ex19del + T790M), 72 hours, WST
[7] = Table 6, canertinib-based compounds, WST
[8] = Table 7, canertinib-based compounds
[9] = Table 7, canertinib-based compounds, PC9Brca1 (Ex19del + T790M)

| Compound | IC50 ([1]; WST (CCK8)) [nM] | IC50 ([2]; WST (CCK8)) [nM] | IC50 ([3]; 72 hours, WST) [nM] | IC50 [4, 6] [nM] | IC50 [5] [nM] | IC50 [1, 7] [nM] | IC50 [2, 7] [nM] | IC50 [3, 8] [nM] | IC50 [4, 9] [nM] |
| --- | --- | --- | --- | --- | --- | --- | --- | --- | --- |
| COc1cc2ncnc(Nc3ccc(F)c(Cl)c3)c2cc1NC(=O)/C=C/CN1CCC(NC(=O)CCCCCCNc2cccc3c2C(=O)N(C2CCC(=O)NC2=O)C3=O)CC1 (stereo not drawn) [SIAIS249085, (E)-N-(1-(4-((4-((3-chloro-4-fluorophenyl)amino)-7-methoxyquinazolin-6-yl)amino)-4-oxobut-2-en-1-yl)piperidin-4-yl)-7-((2-(2,6-dioxopiperidin-3-yl)-1,3-dioxoisoindolin-4-yl)amino)heptanamide] | 3 | 7.9 | 952 | 481 | 39.3 |  |  |  |  |
| COc1cc2ncnc(Nc3ccc(F)c(Cl)c3)c2cc1NC(=O)/C=C/CN1CCC(N2CCN(C(=O)CNc3cccc4c3C(=O)N(C3CCC(=O)NC3=O)C4=O)CC2)CC1 (stereo not drawn) [SIAIS262036, (E)-N-(4-((3-chloro-4-fluorophenyl)amino)-7-methoxyquinazolin-6-yl)-4-(4-(4-(2-((2-(2,6-dioxopiperidin-3-yl)-1,3-dioxoisoindolin-4-yl)amino)acetyl)piperazin-1-yl)piperidin-1-yl)but-2-enamide] | 2.4 | 6.7 | 511 | 260 | 0.3 |  |  |  |  |
| COc1cc2ncnc(Nc3ccc(F)c(Cl)c3)c2cc1NC(=O)/C=C/CN1CCC(NC(=O)CCCCCCSc2cccc3c2CN(C2CCC(=O)NC2=O)C3=O)CC1 (stereo not drawn) [SIAIS262115, (E)-N-(1-(4-((4-((3-chloro-4-fluorophenyl)amino)-7-methoxyquinazolin-6-yl)amino)-4-oxobut-2-en-1-yl)piperidin-4-yl)-7-((2-(2,6-dioxopiperidin-3-yl)-1-oxoisoindolin-4-yl)thio)heptanamide] | 4 | 7.2 | 550 | 488 | 33.7 |  |  |  |  |
| COc1cc2ncnc(Nc3ccc(F)c(Cl)c3)c2cc1NC(=O)/C=C/CN1CCC(NC(=O)CCCCCCCCCCSc2cccc3c2CN(C2CCC(=O)NC2=O)C3=O)CC1 (stereo not drawn) [SIAIS262118, (E)-N-(1-(4-((4-((3-chloro-4-fluorophenyl)amino)-7-methoxyquinazolin-6-yl)amino)-4-oxobut-2-en-1-yl)piperidin-4-yl)-11-((2-(2,6-dioxopiperidin-3-yl)-1-oxoisoindolin-4-yl)thio)undecanamide] | 3 | 3.8 | 299 | 205 | 63.2 |  |  |  |  |
| C=CC(=O)Nc1cc2c(Nc3ccc(F)c(Cl)c3)ncnc2cc1OCCCN1CCN(C(=O)CCCCSc2cccc3c2CN(C2CCC(=O)NC2=O)C3=O)CC1 (stereo not drawn) [SIAIS262122, N-(4-((3-chloro-4-fluorophenyl)amino)-7-(3-(4-(5-((2-(2,6-dioxopiperidin-3-yl)-1-oxoisoindolin-4-yl)thio)pentanoyl)piperazin-1-yl)propoxy)quinazolin-6-yl)acrylamide] |  |  |  |  | 48 | 4.1 | 23.1 | 97 | 474 |
| C=CC(=O)Nc1cc2c(Nc3ccc(F)c(Cl)c3)ncnc2cc1OCCCN1CCN(C(=O)CCCCCSc2cccc3c2CN(C2CCC(=O)NC2=O)C3=O)CC1 (stereo not drawn) [SIAIS262123, N-(4-((3-chloro-4-fluorophenyl)amino)-7-(3-(4-(6-((2-(2,6-dioxopiperidin-3-yl)-1-oxoisoindolin-4-yl)thio)hexanoyl)piperazin-1-yl)propoxy)quinazolin-6-yl)acrylamide] |  |  |  |  | 48.9 | 2 | 8.3 | 143 | 380 |
| C=CC(=O)Nc1cc2c(Nc3ccc(F)c(Cl)c3)ncnc2cc1OCCCN1CCN(C(=O)CNc2cccc3c2C(=O)N(C2CCC(=O)NC2=O)C3=O)CC1 (stereo not drawn) [SIAIS262124, N-(4-((3-chloro-4-fluorophenyl)amino)-7-(3-(4-(2-((2-(2,6-dioxopiperidin-3-yl)-1,3-dioxoisoindolin-4-yl)amino)acetyl)piperazin-1-yl)propoxy)quinazolin-6-yl)acrylamide] |  |  |  |  | 16.4 | 10.3 | 2.6 | 413 | 419 |
| C=CC(=O)Nc1cc2c(Nc3ccc(F)c(Cl)c3)ncnc2cc1OCCCN1CCN(C(=O)CCCCCCNc2cccc3c2C(=O)N(C2CCC(=O)NC2=O)C3=O)CC1 (stereo not drawn) [SIAIS262126, N-(4-((3-chloro-4-fluorophenyl)amino)-7-(3-(4-(7-((2-(2,6-dioxopiperidin-3-yl)-1,3-dioxoisoindolin-4-yl)amino)heptanoyl)piperazin-1-yl)propoxy)quinazolin-6-yl)acrylamide] |  |  |  |  | 17.6 | 2.5 | 2.3 | 20 | 85 |
| C=CC(=O)Nc1cc2c(Nc3ccc(F)c(Cl)c3)ncnc2cc1OCCCN1CCN(CCCCC#CC2c3ccccc3C(=O)N2C2CCC(=O)NC2=O)CC1 (stereo not drawn) [SIAIS262131, N-(4-((3-chloro-4-fluorophenyl)amino)-7-(3-(4-(6-(2-(2,6-dioxopiperidin-3-yl)-3-oxoisoindolin-1-yl)hex-5-yn-1-yl)piperazin-1-yl)propoxy)quinazolin-6-yl)acrylamide] |  |  |  |  | 5.1 | 1.2 | 29.3 | 45 | 216 |
| C=CC(=O)Nc1cc2c(Nc3ccc(F)c(Cl)c3)ncnc2cc1OCCCN1CCC(N2CCN(C(=O)CSc3cccc4c3CN(C3CCC(=O)NC3=O)C4=O)CC2)CC1 (stereo not drawn) [SIAIS262174, N-(4-((3-chloro-4-fluorophenyl)amino)-7-(3-(4-(4-(2-((2-(2,6-dioxopiperidin-3-yl)-1-oxoisoindolin-4-yl)thio)acetyl)piperazin-1-yl)piperidin-1-yl)propoxy)quinazolin-6-yl)acrylamide] |  |  |  |  | 28.2 | 11 | 16.7 | 287 | 267 |
| C=CC(=O)Nc1cc2c(Nc3ccc(F)c(Cl)c3)ncnc2cc1OCCCN1CCC(N2CCN(C(=O)CCCCCSc3cccc4c3CN(C3CCC(=O)NC3=O)C4=O)CC2)CC1 (stereo not drawn) [SIAIS262176, N-(4-((3-chloro-4-fluorophenyl)amino)-7-(3-(4-(4-(6-((2-(2,6-dioxopiperidin-3-yl)-1-oxoisoindolin-4-yl)thio)hexanoyl)piperazin-1-yl)piperidin-1-yl)propoxy)quinazolin-6-yl)acrylamide] |  |  |  |  | 1.4 | 3.3 | 15.8 | 67 | 472 |
| C=CC(=O)Nc1cc2c(Nc3ccc(F)c(Cl)c3)ncnc2cc1OCCCN1CCC(N2CCN(C(=O)CNc3cccc4c3C(=O)N(C3CCC(=O)NC3=O)C4=O)CC2)CC1 (stereo not drawn) [SIAIS262177, N-(4-((3-chloro-4-fluorophenyl)amino)-7-(3-(4-(4-(2-((2-(2,6-dioxopiperidin-3-yl)-1,3-dioxoisoindolin-4-yl)amino)acetyl)piperazin-1-yl)piperidin-1-yl)propoxy)quinazolin-6-yl)acrylamide] |  |  |  |  | 8.2 | 5.7 | 3.4 | 654 | 209 |
| C=CC(=O)Nc1cc2c(Nc3ccc(F)c(Cl)c3)ncnc2cc1OCCCN1CCC(N2CCN(CCCCCCNc3cccc4c3C(=O)N(C3CCC(=O)NC3=O)C4=O)CC2)CC1 (stereo not drawn) [SIAIS262183, N-(4-((3-chloro-4-fluorophenyl)amino)-7-(3-(4-(4-(6-((2-(2,6-dioxopiperidin-3-yl)-1,3-dioxoisoindolin-4-yl)amino)hexyl)piperazin-1-yl)piperidin-1-yl)propoxy)quinazolin-6-yl)acrylamide] |  |  |  |  | 11.9 |  |  | 250 | 1060 |
